Results from patent US8088791B2, “Antibacterial agents” (Biots Scientific Management Pty Ltd, priority 2006, dated 2012).
In brackets after ≈: the same amount, converted by molar mass.

What was measured:
Bacillus subtilis 168CA = assay: Minimum Inhibitory Concentration (MIC) testing, broth microdilution, Bacillus subtilis; type: cell-based; conditions: Bacillus subtilis 168CA; for MIC: read-out: Bacillus subtilis MICs Activity
Summary of the method: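 MICs were scored A (≦8 μg/ml), B (16–64 μg/ml) or C (>64 μg/ml), read as the lowest concentration preventing visible growth by eye and spectrophotometry. Plates incubated overnight (16–20 h) at 37 °C, inoculum OD 0.09 diluted 1:100 in 2× broth, per NCCLS guidelines.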

[1] = system: Staphylococcus aureus ATCC29213; assay: Minimum Inhibitory Concentration (MIC) testing, broth microdilution, Staphylococcus aureus; type: cell-based; conditions: Staphylococcus aureus ATCC29213; for MIC: read-out: Staphylococcus aureus MICs Activity
Summary of the method: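 Broth microdilution per NCCLS M7-A5 in Mueller Hinton broth, with compound in 1.6% DMSO and inoculum at OD 0.09 diluted 1:100. Plates incubated 16–20 h at 37°C. MIC is the lowest concentration with no visible growth; scored A ≤8, B 16–64, C >64 μg/ml.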

| Compound | MIC (Bacillus subtilis 168CA) | MIC [1] | Bacillus subtilis MICs Activity (Bacillus subtilis 168CA) | Staphylococcus aureus MICs Activity [1] |
| --- | --- | --- | --- | --- |
| CC(C)(C)c1ccc(-c2noc(COc3ccc(F)c(C(N)=O)c3F)n2)cc1 [Example 249, 3-(3-[4-(tert-Butyl)phenyl]-1,2,4-oxadiazol-5-ylmethoxy)-2,6-difluorobenzenecarboxamide] | < 8 µg/mL | < 8 µg/mL |  |  |
| CCCCCCCCCCOc1ccc(F)c(C(N)=O)c1 [Example 71, 2-Fluoro-5-(decyloxy)benzenecarboxamide] | < 8 µg/mL | < 8 µg/mL |  |  |
| NC(=O)c1c(F)ccc(OCc2nc(-c3ccc(F)cc3)no2)c1F [Example 245, 2,6-Difluoro-3-[3-(4-fluorophenyl)-1,2,4-oxadiazol-5-yl]methoxybenzenecarboxamide] | < 8 µg/mL | < 8 µg/mL |  |  |
| Cc1oc(-c2ccc(Cl)cc2)nc1COc1ccc(F)c(C(N)=O)c1F [Example 297, 3-[2-(4-Chloro-phenyl)-5-methyl-oxazol-4-ylmethoxy]-2,6-difluoro-benzamide] | < 8 µg/mL | < 8 µg/mL |  |  |
| Cc1ccc2nc(COc3ccc(F)c(C(N)=O)c3F)sc2c1 [Example 229, 2,6-Difluoro-3-[(6-methyl-1,3-benzothiazol-2-yl)methoxy]benzenecarboxamide] | < 8 µg/mL | < 8 µg/mL |  |  |
| COc1ccc(-c2nc(COc3ccc(F)c(C(N)=O)c3F)sc2-c2ccncc2)cc1 [Example 127, 2,6-Difluoro-3-[4-(4-methoxy-phenyl)-5-pyridin-4-yl-thiazol-2-ylmethoxy]-benzamide] | < 8 µg/mL | < 8 µg/mL |  |  |
| NC(=O)c1c(F)ccc(OCc2nc(-c3cccs3)no2)c1F [Example 153, 2,6-Difluoro-3-(3-thiophen-2-yl-[1,2,4]oxadiazol-5-ylmethoxy)-benzamide] | < 8 µg/mL | < 8 µg/mL |  |  |
| COC(=O)CCCOc1cccc(C(N)=O)c1 [Example 26, Methyl 4-[3-(aminocarbonyl)phenoxy]butanoate] | > 64 µg/mL | > 64 µg/mL |  |  |
| CCCCCCOc1cc(F)cc(C(N)=O)c1 [Example 167, 3-Fluoro-5-hexyloxy benzamide] | 16 to 64 µg/mL (≈ 66.9 to 267 µM) | 16 to 64 µg/mL (≈ 66.9 to 267 µM) |  |  |
| Cc1ccccc1-c1nc(COc2ccc(F)c(C(N)=O)c2F)sc1Br [Example 130] | < 8 µg/mL | < 8 µg/mL |  |  |
| NC(=O)c1c(F)ccc(OCc2cccc(-n3cccc3)c2)c1F [Example 161, 2,6-Difluoro-3-(3-pyrrol-1-yl-benzyloxy)-benzamide] | < 8 µg/mL | < 8 µg/mL |  |  |
| CCCCC#CCCCOc1cccc(C(N)=O)c1 [Example 32, 3-(4-Nonynyloxy)benzenecarboxamide] | < 8 µg/mL | 16 to 64 µg/mL (≈ 61.7 to 247 µM) |  |  |
| NC(=O)c1cccc(OCC(=O)OC2CCCCC2)c1 [Example 27, Cyclohexyl 2-[3-(aminocarbonyl)phenoxy]acetate] | > 64 µg/mL | > 64 µg/mL |  |  |
| Cc1cccc(COc2ccc(F)c(C(N)=O)c2F)c1 [Example 195, 2,6-Difluoro-3-[(3-methylbenzyl)oxy]benzenecarboxamide] | < 8 µg/mL | 16 to 64 µg/mL (≈ 57.7 to 231 µM) |  |  |
| CCCCOC(=O)COc1cccc(C(N)=O)c1F [Example 176, Butyl 2-[3-(aminocarbonyl)-2-fluorophenoxy]acetate] | < 8 µg/mL | 16 to 64 µg/mL (≈ 59.4 to 238 µM) |  |  |
| COc1ccc2ccc(COc3ccc(F)c(C(N)=O)c3F)nc2c1 [Example 98, 2,6-Difluoro-3-(7-methoxy-quinolin-2-ylmethoxy)-benzamide] | < 8 µg/mL | < 8 µg/mL |  |  |
| COc1ccc2nc(COc3ccc(F)c(C(N)=O)c3F)ccc2c1 [Example 109, 3-(6-Methoxyquinolin-2-ylmethoxy)-2,6-difluoro-benzamide] | < 8 µg/mL | 16 to 64 µg/mL (≈ 46.5 to 186 µM) |  |  |
| CCCCCCCCOc1cccc(C(N)=O)c1 [Example 19, 3-(Octyloxy)benzenecarboxamide] | < 8 µg/mL | < 8 µg/mL |  |  |
| COc1ccc(-c2nc(COc3ccc(F)c(C(N)=O)c3F)c(C)o2)cc1 [Example 296, 2,6-Difluoro-3-[2-(4-methoxy-phenyl)-5-methyl-oxazol-4-ylmethoxy]-benzamide] | < 8 µg/mL | < 8 µg/mL |  |  |
| CCCCCCOc1c(F)ccc(C(N)=O)c1F [Example 80, 2,4-Difluoro-3-(hexyloxy)benzenecarboxamide] | 16 to 64 µg/mL (≈ 62.2 to 249 µM) | 16 to 64 µg/mL (≈ 62.2 to 249 µM) |  |  |
| NC(=O)c1c(F)ccc(OCc2cncs2)c1F [Example 189, 2,6-Difluoro-3-(1,3-thiazol-5-ylmethoxy)benzenecarboxamide] | > 64 µg/mL | > 64 µg/mL |  |  |
| Cc1ccc2nc(COc3ccc(F)c(C(N)=O)c3F)oc2c1 [Example 211, 2,6-Difluoro-3-[(6-methyl-1,3-benzoxazol-2-yl)methoxy]benzenecarboxamide] | < 8 µg/mL | 16 to 64 µg/mL (≈ 50.3 to 201 µM) |  |  |
| COc1ccc(Br)c(-c2csc(COc3ccc(F)c(C(N)=O)c3F)n2)c1 [Example 100, 3-[4-(2-Bromo-5-methoxy-phenyl)-thiazol-2-ylmethoxy]-2,6-difluoro-benzamide] | < 8 µg/mL | < 8 µg/mL |  |  |

| Compound | MIC (Bacillus subtilis 168CA) | MIC [1] | Bacillus subtilis MICs Activity (Bacillus subtilis 168CA) | Staphylococcus aureus MICs Activity [1] |
| --- | --- | --- | --- | --- |
| NC(=O)c1c(F)ccc(OCc2noc(-c3ccccc3)n2)c1F [Example 239, 2,6-Difluoro-3-[(5-phenyl-1,2,4-oxadiazol-3-yl)methoxy]benzenecarboxamide] | 16 to 64 µg/mL (≈ 48.3 to 193 µM) | 16 to 64 µg/mL (≈ 48.3 to 193 µM) |  |  |
| NC(=O)c1c(F)ccc(OCc2nc(-c3ccc(F)cc3)cs2)c1F [Example 318, 2,6-Difluoro-3-[4-(4-fluoro-phenyl)-thiazol-2-ylmethoxy]-benzamide] | < 8 µg/mL | < 8 µg/mL |  |  |
| COc1cccc(-c2noc(COc3ccc(F)c(C(N)=O)c3F)n2)c1 [Example 256, 2,6-Difluoro-3-[3-(3-methoxyphenyl)-1,2,4-oxadiazol-5-yl]methoxybenzenecarboxamide] | < 8 µg/mL | 16 to 64 µg/mL (≈ 44.3 to 177 µM) |  |  |
| CCCCCOCCOc1cccc(C(N)=O)c1 [Example 53, 3-[2-(Pentyloxy)ethoxy]benzenecarboxamide] | > 64 µg/mL | > 64 µg/mL |  |  |
| CCCCCCOc1cccc(C(N)=O)c1F [Example 165, 2-Fluoro-3-Hexoxy-benzamide] | < 8 µg/mL | < 8 µg/mL |  |  |
| Cc1csc(COc2ccc(F)c(C(N)=O)c2F)c1 [Example 187, 2,6-Difluoro-3-[(4-methyl-2-thienyl)methoxy]benzenecarboxamide] | 16 to 64 µg/mL (≈ 56.5 to 226 µM) | 16 to 64 µg/mL (≈ 56.5 to 226 µM) |  |  |
| Cc1cccc(COc2ccc(F)c(C(N)=O)c2F)c1F [Example 128, 2,6-Difluoro-3-(2-fluoro-3-methyl-benzyloxy)-benzamide] | < 8 µg/mL | 16 to 64 µg/mL (≈ 54.2 to 217 µM) |  |  |
| NC(=O)c1cccc(OCCC2CCCCCC2)c1 [Example 28, 3-(2-Cycloheptylethoxy)benzenecarboxamide] | < 8 µg/mL | > 64 µg/mL |  |  |
| CCCCCCCCCOc1ccc(Cl)c(C(N)=O)c1 [Example 68, 2-Chloro-5-(nonyloxy)benzenecarboxamide] | < 8 µg/mL | < 8 µg/mL |  |  |
| NC(=O)c1c(F)ccc(OCc2nnc(C3CC3)s2)c1F [Example 138, 3-(5-Cyclopropyl-[1,3,4]thiadiazol-2-ylmethoxy)-2,6-difluoro-benzamide] | > 64 µg/mL | > 64 µg/mL |  |  |
| CCCCCCCCCOc1ccc(F)c(C(N)=O)c1F [Example 82, 2,6-Difluoro-3-(nonyloxy)benzenecarboxamide] | < 8 µg/mL | < 8 µg/mL |  |  |
| Cc1ccc2ccc(COc3ccc(F)c(C(N)=O)c3F)nc2c1 [Example 103, 3-(7-Methylquinolin-2-ylmethoxy)-2,6-difluoro-benzamide] | < 8 µg/mL | < 8 µg/mL |  |  |
| NC(=O)c1c(Cl)ccc(OCc2nc(-c3ccc(Cl)cc3)no2)c1F [Example 269, 6-Chloro-3-[3-(4-chloro-phenyl)-[1,2,4]oxadiazol-5-ylmethoxy]-2-fluoro-benzamide] | < 8 µg/mL | < 8 µg/mL |  |  |
| Cc1cnc(COc2ccc(F)c(C(N)=O)c2F)s1 [Example 192, 2,6-Difluoro-3-[(5-methyl-1,3-thiazol-2-yl)methoxy]benzenecarboxamide] | > 64 µg/mL | > 64 µg/mL |  |  |
| 3-Pentyl-2,3-dihydro-1,4-benzodioxine-6-carboxamide and 2-pentyl-2,3-dihydro-1,4-benzodioxine-6-carboxamide [Example 95] |  |  | B (‘B’ if the MIC was 16 to 64 micrograms/ml) | C (‘C’ if the MIC was greater than 64 micrograms/ml) |
| NC(=O)c1c(F)ccc(OCc2nc3cc(F)ccc3s2)c1F [Example 216, 2,6-Difluoro-3-[(5-fluoro-1,3-benzothiazol-2-yl)methoxy]benzenecarboxamide] | < 8 µg/mL | < 8 µg/mL |  |  |
| NC(=O)c1c(F)ccc(OCc2ccoc2)c1F [Example 184, 2,6-Difluoro-3-(3-furylmethoxy)benzenecarboxamide] | 16 to 64 µg/mL (≈ 63.2 to 253 µM) | 16 to 64 µg/mL (≈ 63.2 to 253 µM) |  |  |
| COc1ccc(-c2nc(COc3ccc(F)c(C(N)=O)c3F)sc2-c2nccs2)cc1 [Example 155, 2,6-Difluoro-3-[4′-(4-methoxy-phenyl)-[2,5′]bithiazolyl-2′-ylmethoxy]-benzamide] | < 8 µg/mL | < 8 µg/mL |  |  |
| NC(=O)c1c(F)ccc(OCc2csc(-c3ccccc3)n2)c1F [Example 233, 2,6-Difluoro-3-[(2-phenyl-1,3-thiazol-4-yl)methoxy]benzenecarboxamide] | < 8 µg/mL | < 8 µg/mL |  |  |
| NC(=O)c1c(F)ccc(OCc2cccc(-c3ccccc3)c2)c1F [Example 102, 3-(Biphenyl-3-ylmethoxy)-2,6-difluoro-benzamide] | < 8 µg/mL | < 8 µg/mL |  |  |
| NC(=O)c1cc(OCc2nc(-c3ccc(Cl)cc3)cs2)ccc1F [Example 272, 5-[4-(4-Chloro-phenyl)-thiazol-2-ylmethoxy]-2-fluoro-benzamide] | < 8 µg/mL | < 8 µg/mL |  |  |
| C=CCCCCCCOc1cccc(C(N)=O)c1 [Example 12, 3-(7-Octenyloxy)benzenecarboxamide] | 16 to 64 µg/mL (≈ 64.7 to 259 µM) | < 8 µg/mL |  |  |
